According to patent US20240368078A1, “ARYL HETEROCYCLIC COMPOUNDS AS Kv1.3 POTASSIUM SHAKER CHANNEL BLOCKERS” (D.E. SHAW RESEARCH, LLC, priority 2021, published 2024):

Experiments:
Kv1.3 potassium channel = Kv1.3 potassium channel (Homo sapiens (Human), UniProt P22001); test: Kv1.3 potassium channel blocker activity, automated whole-cell patch clamp in CHO-K1 cells stably expressing Kv1.3; type: cell-based; conditions: Patchliner patch clamp
Protocol: Example 21. Evaluation of Kv1.3 Potassium Channel Blocker Activities
This assay is used to evaluate the disclosed compounds' activities as Kv1.3 potassium channel blockers.
CHO-K1 cells stably expressing Kv1.3 were grown in DMEM containing 10% heat-inactivated FBS, 1 mM sodium pyruvate, 2 mM L-glutamine, and G418 (500 μg/ml). Cells were grown in culture flasks at 37° C. in a 5% C02-humidified incubator.
(§1) The cells were bathed in an extracellular solution containing 140 mM NaCl, 4 mM KCl, 2 mM CaCl2), 1 mM MgCl2, 5 mM glucose, 10 mM HEPES; pH adjusted to 7.4 with NaOH; 295-305 mOsm. The internal solution contained 50 mM KCl, 10 mM NaCl, 60 mM KF, 20 mM EGTA, 10 mM HEPES; pH adjusted to 7.2 with KOH; 285 mOsm. All compounds were dissolved in DMSO at 30 mM. Compound stock solutions were freshly diluted with external solution to concentrations of 30 nM, 100 nM, 300 nM, 1 μM, 3 μM, 10 μM, 30 μM and 100 μM. The highest content of DMSO (0.3%) was present in 100 μM.
The currents were evoked by applying 100 ms depolarizing pulses from −90 mV (holding potential) to +40 mV were applied with 0.1 Hz frequency. Control (compound-free) and compound pulse trains for each compound concentration applied contained 20 pulses. 10-second breaks were used between pulse trains (see Table A below).
Whole-cell current recordings and compound application were enabled by means of an automated patch clamp platform Patchliner (Nanion Technologies GmbH). EPC 10 patch clamp amplifier (HEKA Elektronik Dr. Schulze GmbH) along with Patchmaster software (HEKA Elektronik Dr. Schulze GmbH) was used for data acquisition. Data were sampled at 10 kHz without filtering. Passive leak currents were subtracted online using a P/4 procedure (HEKA Elektronik Dr. Schulze GmbH). Increasing compound concentrations were applied consecutively to the same cell without washouts in between. Total compound incubation time before the next pulse train was not longer than 10 seconds. Peak current inhibition was observed during compound equilibration.
(§2) AUC and peak values were obtained with Patchmaster (HEKA Elektronik Dr. Schulze GmbH). To determine IC50, the last single pulse in the pulse train corresponding to a given compound concentration was used. Obtained AUC and peak values in the presence of compound were normalized to control values in the absence of compound. Using Origin (OridinLab), IC50 was derived from data fit to Hill equation: Icompound/Icontrol=(100-A)/(1+([compound]/IC50)nH)+A, where IC50 value is the concentration at which current inhibition is half-maximal, [compound] is the applied compound concentration, A is the fraction of current that is not blocked and nH is the Hill coefficient.

hERG channel = hERG channel (Homo sapiens (Human), UniProt Q12809); test: hERG electrophysiology, automated whole-cell patch clamp in CHO-K1 cells stably expressing hERG; type: cell-based; conditions: Patchliner patch clamp
hERG channel, sequence (Q12809 whole entry): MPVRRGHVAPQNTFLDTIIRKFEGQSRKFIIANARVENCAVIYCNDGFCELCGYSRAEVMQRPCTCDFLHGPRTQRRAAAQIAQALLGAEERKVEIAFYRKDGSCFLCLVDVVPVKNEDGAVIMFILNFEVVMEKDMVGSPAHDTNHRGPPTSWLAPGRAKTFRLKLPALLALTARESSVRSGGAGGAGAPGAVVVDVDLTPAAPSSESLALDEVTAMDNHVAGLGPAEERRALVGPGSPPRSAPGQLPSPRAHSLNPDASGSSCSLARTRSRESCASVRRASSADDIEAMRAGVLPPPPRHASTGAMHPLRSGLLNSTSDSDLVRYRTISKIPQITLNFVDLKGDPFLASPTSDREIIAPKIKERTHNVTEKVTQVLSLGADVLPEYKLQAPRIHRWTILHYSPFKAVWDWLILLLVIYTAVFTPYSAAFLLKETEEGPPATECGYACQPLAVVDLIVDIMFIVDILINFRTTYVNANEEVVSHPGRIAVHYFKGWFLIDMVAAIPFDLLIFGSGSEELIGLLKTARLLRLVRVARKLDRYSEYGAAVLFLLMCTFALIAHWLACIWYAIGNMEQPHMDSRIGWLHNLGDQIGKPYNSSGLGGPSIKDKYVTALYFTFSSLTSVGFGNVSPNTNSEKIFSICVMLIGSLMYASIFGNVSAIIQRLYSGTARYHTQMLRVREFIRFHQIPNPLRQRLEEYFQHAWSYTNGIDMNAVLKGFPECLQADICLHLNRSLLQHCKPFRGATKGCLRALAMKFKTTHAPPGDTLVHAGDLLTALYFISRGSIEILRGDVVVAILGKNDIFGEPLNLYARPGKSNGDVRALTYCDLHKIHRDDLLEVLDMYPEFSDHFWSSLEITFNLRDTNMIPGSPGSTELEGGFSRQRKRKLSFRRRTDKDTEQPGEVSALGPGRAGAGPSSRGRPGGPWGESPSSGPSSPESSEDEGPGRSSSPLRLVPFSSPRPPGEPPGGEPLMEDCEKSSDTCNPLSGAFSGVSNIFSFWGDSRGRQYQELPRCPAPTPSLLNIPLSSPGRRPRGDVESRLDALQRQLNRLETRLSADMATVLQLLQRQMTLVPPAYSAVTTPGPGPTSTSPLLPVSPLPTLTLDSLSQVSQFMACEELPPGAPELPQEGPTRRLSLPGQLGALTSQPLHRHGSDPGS
Protocol: Example 22. Evaluation of hERG Activities
This assay is used to evaluate the disclosed compounds's inhibition activities against the hERG channel.
This assay is used to evaluate the disclosed compounds' inhibition activities against the hERG channel.
CHO-K1 cells stably expressing hERG were grown in Ham's F-12 Medium with glutamine containing 10% heat-inactivated FBS, 1% penicillin/streptomycin, hygromycin (100 μg/ml) and G418 (100 μg/ml). Cells were grown in culture flasks at 37° C. in a 5% CO2— humidified incubator.
as §1, with “Glucose,” for “glucose,”
The voltage protocol (see Table B) was designed to simulate voltage changes during a cardiac action potential with a 300 ms depolarization to +20 mV (analogous to the plateau phase of the cardiac action potential), a repolarization for 300 ms to −50 mV (inducing a tail current) and a final step to the holding potential of −80 mV. The pulse frequency was 0.3 Hz. Control (compound-free) and compound pulse trains for each compound concentration applied contained 70 pulses.
Whole-cell current recordings and compound application were enabled by means of an automated patch clamp platform Patchliner (Nanion). EPC 10 patch clamp amplifier (HEKA) along with Patchmaster software (HEKA Elektronik Dr. Schulze GmbH) was used for data acquisition. Data were sampled at 10 kHz without filtering. Increasing compound concentrations were applied consecutively to the same cell without washouts in between.
as §2, with “PEAK” for “peak”, “IC50” for “IC50,”, “Icompound/Icontrol=(100−A)/(1+([compound]/IC50)nH)+A,” for “Icompound/Icontrol=(100-A)/(1+([compound]/IC50)nH)+A,”, “IC50” for “IC50 value”

Kv1.3 potassium channel, sequence (P22001 whole entry): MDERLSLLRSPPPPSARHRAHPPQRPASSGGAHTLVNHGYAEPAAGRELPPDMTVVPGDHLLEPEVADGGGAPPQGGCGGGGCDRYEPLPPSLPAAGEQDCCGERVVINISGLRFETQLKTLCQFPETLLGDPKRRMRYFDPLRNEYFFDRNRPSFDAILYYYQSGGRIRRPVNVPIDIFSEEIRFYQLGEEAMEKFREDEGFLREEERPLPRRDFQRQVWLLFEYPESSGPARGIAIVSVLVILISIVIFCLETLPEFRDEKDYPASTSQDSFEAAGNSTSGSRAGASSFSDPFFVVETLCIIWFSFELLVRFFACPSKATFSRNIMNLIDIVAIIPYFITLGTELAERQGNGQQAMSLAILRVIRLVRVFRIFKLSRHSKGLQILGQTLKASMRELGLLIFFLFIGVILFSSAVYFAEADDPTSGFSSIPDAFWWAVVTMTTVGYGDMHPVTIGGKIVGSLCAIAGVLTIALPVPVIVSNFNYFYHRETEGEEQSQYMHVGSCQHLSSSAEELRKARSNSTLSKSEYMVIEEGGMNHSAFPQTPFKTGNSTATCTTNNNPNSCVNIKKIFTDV

Row | IC50 (Kv1.3 potassium channel) [µM] | Structure (SMILES) | IC50 (hERG channel) [µM]
1 | < 0.1 | O=C(C[C@H]1CN[C@@H](c2c(O)ccc(Cl)c2Cl)C1)N1CC(O)C1 [Compound 56, 2-((3S,5R)-5-(2,3-dichloro-6-hydroxyphenyl)pyrrolidin-3-yl)-1-(3-hydroxyazetidin-1-yl)ethan-1-one] | > 100
2 | < 1 | O=C(C[C@H]1CN[C@@H](c2c(O)ccc(Cl)c2Cl)C1)N1CCC[C@@H](O)C1 [Compound 58, 2-((3S,5R)-5-(2,3-dichloro-6-hydroxyphenyl)pyrrolidin-3-yl)-1-((R)-3-hydroxypipeiridn-1-yl)ethan-1-one] | > 30
3 | < 0.1 | CC1(O)CN(C(=O)C[C@H]2CN[C@@H](c3c(O)ccc(Cl)c3Cl)C2)C1 [Compound 61, 2-((3S,5R)-5-(2,3-dichloro-6-hydroxyphenyl)pyrrolidin-3-yl)-1-(3-hydroxy-3-methylazetidin-1-yl)ethan-1-one] | > 100
4 | < 0.1 | C[C@H](CO)NC(=O)C[C@H]1CN[C@@H](c2c(O)ccc(Cl)c2Cl)C1 [Compound 63, 2-((3S,5R)-5-(2,3-dichloro-6-hydroxyphenyl)pyrrolidin-3-yl)-N-((R)-1-hydroxypropan-2-yl)acetamide] | > 100
5 | < 0.1 | C[C@@H](O)CNC(=O)C[C@H]1CN[C@@H](c2c(O)ccc(Cl)c2Cl)C1 [Compound 64, 2-((3S,5R)-5-(2,3-dichloro-6-hydroxyphenyl)pyrrolidiin-3-yl)-N-((R)-2-hydroxypropyl)acetamide] | > 100
6 | < 0.1 | C[C@H](O)CNC(=O)C[C@H]1CN[C@@H](c2c(O)ccc(Cl)c2Cl)C1 [Compound 65, 2-((3S,5R)-5-(2,3-dichloro-6-hydroxyphenyl)pyrrolidin-3-yl)-N-((S)-2-hydroxypropyl)acetamide] | > 100
7 | < 1 | CC(C)(O)CNC(=O)C[C@H]1CN[C@@H](c2c(O)ccc(Cl)c2Cl)C1 [Compound 66, 2-((3S,5R)-5-(2,3-dichloro-6-hydroxyphenyl)pyrrolidin-3-yl)-N-(2-hydroxy-2-methylpropyl)acetamide] | > 100
8 | < 1 | O=C(C[C@H]1CN[C@@H](c2c(O)ccc(Cl)c2Cl)C1)N1CC[C@@H]1CO [Compound 67, 2-((3S,5R)-5-(2,3-dichloro-6-hydroxyphenyl)pyrrolidin-3-yl)-1-((R)-2-(hydroxymethyl)azetidin-1-yl)ethan-1-one] | > 100
9 | < 1 | O=C(C[C@H]1CN[C@@H](c2c(O)ccc(Cl)c2Cl)C1)N1CC[C@H]1CO [Compound 68, 2-((3S,5R)-5-(2,3-dichloro-6-hydroxyphenyl)pyrrolidin-3-yl)-1-((S)-2-(hydroxymethyl)azetidin-1-yl)ethan-1-one] | > 100
10 | < 1 | CC(C)(CO)NC(=O)C[C@H]1CN[C@@H](c2c(O)ccc(Cl)c2Cl)C1 [Compound 71, 2-((3S,5R)-5-(2,3-dichloro-6-hydroxyphenyl)pyrrolidin-3-yl)-N-(1-hydroxy-2-methylpropan-2-yl)acetamide] | > 100
